Values joined by “and” are separate entries in the source; they are usually repeats but may differ in a detail not shown here. Equal entries are not always repeated.
Experiment: xn = mol fraction of the nth substance listed

COC(C)=O + ClCCCl
303.15 K, 101.3 kPa
Conditions	viscosity [mPa·s]
x1 = 0.1016	0.6754
x1 = 0.199	0.6342
x1 = 0.2978	0.594
x1 = 0.4014	0.5517
x1 = 0.4966	0.5168
x1 = 0.5959	0.4819
x1 = 0.6976	0.4445
x1 = 0.8973	0.378

COc1ccccc1N + ClCCCl
viscosity [mPa·s], 100 kPa
Conditions	x1 = 0.0875	x1 = 0.1658	x1 = 0.2536	x1 = 0.3656	x1 = 0.4856	x1 = 0.5902	x1 = 0.6816	x1 = 0.7704	x1 = 0.8841
303.15 K	1.101	1.438	1.814	2.291	2.797	3.235	3.613	3.98	4.448
308.15 K	1.037	1.353	1.704	2.148	2.617	3.022	3.372	3.711	4.139
313.15 K	0.974	1.27	1.596	2.004	2.436	2.808	3.13	3.439	3.829

COCCOC + Clc1ccccc1
298.15 K, 101 kPa
Conditions	viscosity [mPa·s]
x1 = 0.1219	0.721
x1 = 0.2379	0.685
x1 = 0.3487	0.649
x1 = 0.4543	0.611
x1 = 0.5554	0.573
x1 = 0.652	0.537
x1 = 0.7445	0.503
x1 = 0.8332	0.47
x1 = 0.9183	0.439

COc1ccccc1N + NCCO
viscosity [mPa·s], 100 kPa
Conditions	x1 = 0.0897	x1 = 0.1649	x1 = 0.2579	x1 = 0.3519	x1 = 0.4497	x1 = 0.5507	x1 = 0.6549	x1 = 0.7626	x1 = 0.8735
303.15 K	13.58	12.87	11.99	11.1	10.18	9.22	8.23	7.2	6.14
308.15 K	11.07	10.54	9.87	9.2	8.5	7.77	7.02	6.24	5.44
313.15 K	9.09	8.7	8.2	7.7	7.17	6.63	6.07	5.49	4.88
318.15 K	7.24	6.97	6.64	6.29	5.94	5.56	5.18	4.78	4.37

COCCOC + Nc1ccccc1
298.15 K, 101 kPa
Conditions	viscosity [mPa·s]
x1 = 0.103	2.958
x1 = 0.2053	2.326
x1 = 0.3069	1.85
x1 = 0.4079	1.488
x1 = 0.5082	1.194
x1 = 0.6079	0.96
x1 = 0.7068	0.778
x1 = 0.8052	0.625
x1 = 0.9029	0.505

CC(N)C(=O)[O-].CCCCn1cc[n+](C)c1 + O
Conditions	viscosity [mPa·s]
318.15 K, 100.3 kPa, x1 = 0.01781	1.114

CCCCC(CC)COC(=O)CC(C(=O)OCC(CC)CCCC)S(=O)(=O)[O-].C[NH+]1C=CN=C1 (stereo unspecified) + O
99.6 kPa, x2 = 0.09474
Conditions	viscosity [mPa·s]
293.15 K	3381
303.15 K	1440
313.15 K	684
323.15 K	359

CN(C)N + O
293.15 K, 101.3 kPa
Conditions	viscosity [mPa·s]
x1 = 0.0499	2.05
x1 = 0.1018	3.64
x1 = 0.1471	6.22
x1 = 0.2	8.22
x1 = 0.2498	8.46
x1 = 0.2984	7.51
x1 = 0.3466	6.25
x1 = 0.3995	4.78
x1 = 0.4482	4.23
x1 = 0.4994	2.95
x1 = 0.5955	2.28
x1 = 0.6986	1.27
x1 = 0.8064	0.9
x1 = 0.8999	0.69

CNC(=O)NC + O
101 kPa
Conditions	viscosity [mPa·s]
293.15 K, x1 = 0.000596	1.045
293.15 K, x1 = 0.06729	2.325
293.15 K, x1 = 0.08722	2.805
298.15 K, x1 = 0.1358	3.535
298.15 K, x1 = 0.2199	5.955
303.15 K, x1 = 0.08722	2.055
308.15 K, x1 = 0.11	2.135
308.15 K, x1 = 0.1358	2.545
313.15 K, x1 = 0.1358	2.195

COC(C)=O + O
298.15 K, 101 kPa
Conditions	viscosity [mPa·s]
x1 = 0.007776	0.9505
x1 = 0.01059	0.9711
x1 = 0.01834	1.021
x1 = 0.02351	1.05
x1 = 0.0294	1.087
x1 = 0.03745	1.118
x1 = 0.03898	1.127
x1 = 0.04509	1.146
x1 = 0.7729	0.4311
x1 = 0.8213	0.4084
x1 = 0.8787	0.3879
x1 = 0.9325	0.372

C[C@H](N)C(=O)[O-].[Na+] + O
viscosity [mPa·s], 101 kPa
Conditions	x1 = 0.004484	x1 = 0.008927	x1 = 0.01333	x1 = 0.0177	x1 = 0.02202	x1 = 0.02631	x1 = 0.03478	x1 = 0.0431	x1 = 0.05127
293.15 K	1.118	1.239	1.371	1.526	1.683	1.856	2.272	2.747	3.244
303.15 K	0.886	0.979	1.077	1.192	1.305	1.436	1.726	2.062	2.399
313.15 K	0.722	–	0.871	0.96	1.046	1.144	1.372	1.605	1.851
323.15 K	0.602	0.662	0.722	0.791	0.859	0.935	1.1	1.286	1.477

N[C@@H](Cc1ccccc1)C(=O)O + O
viscosity
Conditions	298.15 K	303.15 K	308.15 K	313.15 K
100 kPa, x1 = 0.0004	0.8956 mPa·s	0.8037 mPa·s	0.7264 mPa·s	–
100 kPa, x1 = 0.0007	0.8984 mPa·s	0.8062 mPa·s	0.7289 mPa·s	0.6638 mPa·s
100 kPa, x1 = 0.001	0.901 mPa·s	0.8088 mPa·s and 0.8113 mPa·s	0.7315 mPa·s and 0.7343 mPa·s	0.6689 mPa·s and 0.6664 mPa·s
100 kPa, x1 = 0.0018	0.9067 mPa·s	0.8139 mPa·s	–	0.6713 mPa·s
100 kPa, x1 = 0.0022	0.9093 mPa·s	0.8169 mPa·s	0.7395 mPa·s	0.6738 mPa·s
101 kPa, x1 = 0.00018	0.912 mPa·s	0.803 mPa·s	0.731 mPa·s	0.658 mPa·s
101 kPa, x1 = 0.000362	0.919 mPa·s	0.809 mPa·s	0.734 mPa·s	–
101 kPa, x1 = 0.000725	0.927 mPa·s	0.822 mPa·s	0.745 mPa·s	0.671 mPa·s
101 kPa, x1 = 0.000909	0.931 mPa·s	0.825 mPa·s	0.749 mPa·s	0.674 mPa·s
101 kPa, x1 = 0.00109	0.949 mPa·s	0.841 mPa·s	–	0.688 mPa·s
101 kPa, x1 = 0.00146	0.959 mPa·s	0.849 mPa·s	0.767 mPa·s	0.692 mPa·s

O.O.O=C(O)c1cc(S(=O)(=O)O)ccc1O + O
viscosity [mPa·s], 101 kPa
Conditions	x1 = 0.0004118	x1 = 0.0005979	x1 = 0.0007679	x1 = 0.001076
298.15 K	0.8998	0.9032	0.907	0.9134
308.15 K	0.7268	0.7304	0.7332	0.7386
318.15 K	0.597	0.6063	0.6087	0.6128
